The results in this text go back to US20260256751A1, “COMBINATION OF BETA-2-ADRENERGIC RECEPTOR AGONISTS AND GLP-1 RECEPTOR AGONISTS FOR USE IN TREATING HYPERGLYCAEMIA” (ATROGI AB, priority 2023, published 2026).

The test system of test [1] is differentiated L6-myotubes. Kind of test: Glucose uptake screen (Biological example 1 of WO 2019/053427). In kind it is cell-based. The note with it: compound at 10 μM, activity relative to isoproterenol at 10 μM, read-out: Biological example 1 of WO 2019/053427 (GU). The method in brief: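 Rat L6 myoblasts were differentiated into myotubes over 7 days in 2% FBS, then serum-starved overnight. Cells were stimulated with 1×10^−5 M compound plus β2 antagonist ICI-118551 for 1 h 40 min and re-dosed for 20 min in glucose-free medium. Uptake of 50 nM ^3H-2-deoxyglucose over 10 min was counted after NaOH lysis.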

The test system of test [2] is differentiated L6-myotubes. The test can be described thus: cAMP production relative to isoprenaline (Biological example 2 of WO 2019/053427). Format: cell-based. The note with it: 0.25 h, compound at 10 μM, activity relative to isoproterenol at 10 μM. A digest of the protocol:
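Differentiated L6 myotubes stimulated 15 min with test compound or isoprenaline, each at final 1×10^−5 M, in HBSS with 1% BSA, 5 mM HEPES, 1 mM IBMX, pH 7.4. cAMP production by the compound expressed relative to that induced by the same concentration of isoprenaline.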
On the technique in general: Cyclic AMP is a second messenger, typically raised through Gs and lowered through Gi signalling.

The structures appear in SMILES notation.

Turning to `COc1ccc(C[C@@]2(C)CC[C@H]([C@H](O)c3cccc(F)c3)N2)cc1` [Compound 366, (R)-{(2R,5R)-5-[(p-methoxyphenyl)methyl]-5-methyl-2-pyrrolidinyl}(m-fluorophenyl)methanol], the values for the Emax at 10 µM in test [1] and in test [2] were greater than 75% and 25 to 50%, respectively.
For `COC(=O)[C@H]1CC[C@H](C(C)(C)NC[C@H](O)c2cccc(F)c2)CC1` [Compound 367, (1R,4r)-8-[(R)-2-(m-fluorophenyl)-2-hydroxyethylamino]-7-methoxy-p-menthan-7-one] the same measures were greater than 75% and 25 to 50%.
Turning to `CC(C)(NC[C@H](O)c1cccc(F)c1)[C@H]1CC[C@H](C(=O)O)CC1` [Compound 368, (1R,4r)-8-[(R)-2-(m-fluorophenyl)-2-hydroxyethylamino]-7-hydroxy-p-menthan-7-one], the Emax at 10 µM in test [1] was 25 to 50%; in test [2] it was less than 25%.
Consider `CC(C)(NC[C@H](O)c1cccc(F)c1)[C@H]1CC[C@@H](C(=O)O)CC1` [Compound 369, (1S,4s)-8-[(R)-2-(m-fluorophenyl)-2-hydroxyethylamino]-7-hydroxy-p-menthan-7-one], for which the Emax at 10 µM in test [1] is 50 to 75%; in test [2], less than 25%.
`COC(=O)[C@H]1CC[C@H](C(C)(C)NC[C@H](O)c2cncc(F)c2)CC1` [Compound 370, (1R,4r)-8-[(R)-2-(5-fluoro-3-pyridyl)-2-hydroxyethylamino]-7-methoxy-p-menthan-7-one]: the Emax at 10 µM in test [1] is greater than 75%; in test [2], less than 25%.
For `CC(C)(C[C@H]1CC[C@H](N)CC1)NC[C@H](O)c1cccc(F)c1` [Compound 371, (R)-2-{1,1-dimethyl-2-[(1r,4R)-4-aminocyclohexyl]ethylamino}-1-(m-fluorophenyl)-1-ethanol] the same measures were greater than 75% and less than 25%.
Turning to `COc1ccc(C[C@@H]2CC[C@H]([C@@H](O)c3cccc(F)c3)N2)cc1` [Compound 372, (S)-{(2R,5S)-5-[(p-methoxyphenyl)methyl]-2-pyrrolidinyl}(m-fluorophenyl)methanol], the values for the Emax at 10 µM in test [1] and in test [2] were greater than 75% and less than 25%, respectively.
For `COc1ccc(C[C@@H]2CC[C@H]([C@H](O)c3cccc(F)c3)N2)cc1` [Compound 373, (R)-{(2R,5S)-5-[(p-methoxyphenyl)methyl]-2-pyrrolidinyl}(m-fluorophenyl)methanol] the same measures were greater than 75% and 25 to 50%.
On to `COc1ccc(C[C@H]2CC[C@H]([C@H](O)c3cccc(F)c3)N2)cc1` [Compound 374, (R)-{(2R,5R)-5-[(p-methoxyphenyl)methyl]-2-pyrrolidinyl}(m-fluorophenyl)methanol], for which the Emax at 10 µM in test [1] is greater than 75%; in test [2], less than 25%.
Consider `COc1ccc(C[C@H]2CC[C@H]([C@@H](O)c3cccc(F)c3)N2)cc1` [Compound 375, (S)-{(2R,5R)-5-[(p-methoxyphenyl)methyl]-2-pyrrolidinyl}(m-fluorophenyl)methanol], for which the values for the Emax at 10 µM in test [1] and in test [2] were greater than 75% and less than 25%, respectively.
Take `Cc1ncccc1[C@@H](O)CNC(C)(C)C` [Compound 376, (R)-2-(tert-butylamino)-1-(2-methyl-3-pyridyl)-1-ethanol]: the Emax at 10 µM in test [1] is greater than 75%; in test [2] it was 25 to 50%.
In the case of `COc1ccc(C[C@@H]2CC[C@H]([C@@H](O)c3cncc(F)c3)N2)cc1` [Compound 377, (S)-{(2R,5S)-5-[(p-methoxyphenyl)methyl]-2-pyrrolidinyl}(5-fluoro-3-pyridyl)methanol], the Emax at 10 µM in test [1] is greater than 75%; in test [2] it was less than 25%.
With `COc1ccc(C[C@@H]2CC[C@H]([C@H](O)c3cncc(F)c3)N2)cc1` [Compound 378, (R)-{(2R,5S)-5-[(p-methoxyphenyl)methyl]-2-pyrrolidinyl}(5-fluoro-3-pyridyl)methanol], the results for the Emax at 10 µM in test [1] and in test [2] were greater than 75% and less than 25%, respectively.
On to `COc1ccc(C[C@H]2CC[C@H]([C@H](O)c3cncc(F)c3)N2)cc1` [Compound 379, (R)-{(2R,5R)-5-[(p-methoxyphenyl)methyl]-2-pyrrolidinyl}(5-fluoro-3-pyridyl)methanol], for which the Emax at 10 µM is greater than 75% in test [1] and less than 25% in test [2].
For the compound `COc1ccc(C[C@H]2CC[C@H]([C@@H](O)c3cncc(F)c3)N2)cc1` [Compound 380, (S)-{(2R,5R)-5-[(p-methoxyphenyl)methyl]-2-pyrrolidinyl}(5-fluoro-3-pyridyl)methanol], the Emax at 10 µM in test [1] was greater than 75%; in test [2], less than 25%.
`CC(C)(NC[C@H](O)c1cccc(F)c1)[C@H]1CC[C@H](N)CC1` [Compound 381, (R)-1-(m-fluorophenyl)-2-{1-methyl-1-[(1r,4R)-4-aminocyclohexyl]ethylamino}-1-ethanol]: the Emax at 10 µM was 50 to 75% in test [1] and less than 25% in test [2].
Turning to `CC(C)(C[C@H]1CC[C@H](NS(C)(=O)=O)CC1)NC[C@H](O)c1cccc(F)c1` [Compound 382, (R)-2-{1,1-dimethyl-2-[(1r,4R)-4-(mesylamino)cyclohexyl]ethylamino}-1-(m-fluorophenyl)-1-ethanol], the figures for the Emax at 10 µM in test [1] and in test [2] were greater than 75% and 25 to 50%, respectively.
With `CC(=O)N[C@H]1CC[C@H](CC(C)(C)NC[C@H](O)c2cccc(F)c2)CC1` [Compound 383, N-[(1R,4r)-4-{2-[(R)-2-(m-fluorophenyl)-2-hydroxyethylamino]-2-methylpropyl}cyclohexyl]acetamide], the Emax at 10 µM was greater than 75% in test [1] and 25 to 50% in test [2].
As for `CC(C)(C[C@H]1CC[C@H](NC(=O)c2ccccc2)CC1)NC[C@H](O)c1cccc(F)c1` [Compound 384, N-[(1R,4r)-4-{2-[(R)-2-(m-fluorophenyl)-2-hydroxyethylamino]-2-methylpropyl}cyclohexyl]benzamide], the Emax at 10 µM in test [1] and in test [2] was greater than 75% in each case.
For `CC(C)(NC[C@H](O)c1cccc(F)c1)[C@H]1CC[C@H](NS(C)(=O)=O)CC1` [Compound 385, (R)-1-(m-fluorophenyl)-2-{1-methyl-1-[(1r,4R)-4-(mesylamino)cyclohexyl]ethylamino}-1-ethanol], the Emax at 10 µM in test [1] was 50 to 75%; in test [2], less than 25%.
`CC(=O)N[C@H]1CC[C@H](C(C)(C)NC[C@H](O)c2cccc(F)c2)CC1` [Compound 386, N-[(1R,4r)-4-{1-[(R)-2-(m-fluorophenyl)-2-hydroxyethylamino]-1-methylethyl}cyclohexyl]acetamide]: the Emax at 10 µM was greater than 75% in test [1] and less than 25% in test [2].
For the compound `CC(C)(C)NC[C@H](O)c1cccc(C#N)n1` [Compound 387, 6-[(S)-2-(tert-butylamino)-1-hydroxyethyl]-2-pyridinecarbonitrile], the Emax at 10 µM was greater than 75% in test [1] and 25 to 50% in test [2].
Consider `O[C@H](c1cccc(F)c1)C12CCC(Cc3ccccc3)(CC1)N2` [Compound 388, (R)-(4-benzyl-7-azabicyclo[2.2.1]hept-1-yl)(m-fluorophenyl)methanol], for which the Emax at 10 µM in test [1] was greater than 75%; in test [2], 25 to 50%.
For the compound `O[C@@H](c1cccc(F)c1)C12CCC(Cc3ccccc3)(CC1)N2` [Compound 389, (S)-(4-benzyl-7-azabicyclo[2.2.1]hept-1-yl)(m-fluorophenyl)methanol], the Emax at 10 µM was 50 to 75% in test [1] and less than 25% in test [2].
For the compound `CC(C)(NC[C@H](O)c1cncc(F)c1)[C@H]1CC[C@H](C(=O)O)CC1` [Compound 390, (1R,4r)-8-[(R)-2-(5-fluoro-3-pyridyl)-2-hydroxyethylamino]-7-hydroxy-p-menthan-7-one], the results for the Emax at 10 µM in test [1] and in test [2] were 50 to 75% and less than 25%, respectively.
Turning to `O[C@@H](c1cccc(F)c1)[C@H]1CC[C@@H](Cc2ccc(Cl)cc2)N1` [Compound 391, (S)-{(2R,5S)-5-[(p-chlorophenyl)methyl]-2-pyrrolidinyl}(m-fluorophenyl)methanol], the Emax at 10 µM was 50 to 75% in test [1] and less than 25% in test [2].
For `O[C@H](c1cccc(F)c1)[C@H]1CC[C@@H](Cc2ccc(Cl)cc2)N1` [Compound 392, (R)-{(2R,5S)-5-[(p-chlorophenyl)methyl]-2-pyrrolidinyl}(m-fluorophenyl)methanol] the same measures were greater than 75% and less than 25%.
Consider `O[C@H](c1cccc(F)c1)[C@H]1CC[C@H](Cc2ccc(Cl)cc2)N1` [Compound 393, (R)-{(2R,5R)-5-[(p-chlorophenyl)methyl]-2-pyrrolidinyl}(m-fluorophenyl)methanol], for which the Emax at 10 µM is greater than 75% in test [1] and less than 25% in test [2].
Take `O[C@@H](c1cccc(F)c1)[C@H]1CC[C@H](Cc2ccc(Cl)cc2)N1` [Compound 394, (S)-{(2R,5R)-5-[(p-chlorophenyl)methyl]-2-pyrrolidinyl}(m-fluorophenyl)methanol]: the values for the Emax at 10 µM in test [1] and in test [2] were 50 to 75% and less than 25%, respectively.
For the compound `O[C@@H](c1cccc(F)c1)C12CCC(COCc3ccc(Cl)cc3)(CC1)N2` [Compound 395, (S)-(4-{[(p-chlorophenyl)methoxy]methyl}-7-azabicyclo[2.2.1]hept-1-yl)(m-fluorophenyl)methanol], the values for the Emax at 10 µM in test [1] and in test [2] were 50 to 75% and less than 25%, respectively.
On to `O[C@H](c1cccc(F)c1)C12CCC(COCc3ccc(Cl)cc3)(CC1)N2` [Compound 396, (R)-(4-{[(p-chlorophenyl)methoxy]methyl}-7-azabicyclo[2.2.1]hept-1-yl)(m-fluorophenyl)methanol], for which the Emax at 10 µM in test [1] was greater than 75%; in test [2], less than 25%.
